Data: ChEMBL document CHEMBL5500370, “Discovery of potent and novel dual NAMPT/BRD4 inhibitors for efficient treatment of hepatocellular carcinoma” (Eur J Med Chem, 2024)
Active and inactive are the calls of the source. The rule behind the calls is not given here.

Key:
[1] = test system: Hep 3B2; test: Antiproliferative activity against NMN-treated human Hep3B cells incubated for 120 hrs by MTT assay; assay type: functional, cell-based
[2] = biological target: Bromodomain-containing protein 4 (Homo sapiens, UniProt O60885); test: Inhibition of BRD4 (unknown origin) incubated for 120 mins by TR-FRET assay
[3] = test system: Hep 3B2; test: Antiproliferative activity against NMN/NAMN-treated human Hep3B cells incubated for 120 hrs by MTT assay; assay type: functional, cell-based
[4] = test system: HCCLM3; test: Antitumor activity against human HCCLM3 cells xenografted in BALB/c nude mouse at 80 mg/kg, ip for 27 days relative to control; assay type: functional; details: HCCLM3, 648 h, time 27 day, read-out: TGI
[5] = test system: Hep 3B2; test: cells; details: Homo sapiens, Hep3B, 120 h
[6] = test system: Hep 3B2; test: Induction of apoptosis in human Hep3B cells assessed as early apoptotic cells at 5 uM measured after 72 hrs by Annexin V-FITC/PI staining based flow cytometry (reference value: 2.13 %); assay type: functional
[7] = test system: Hep 3B2; test: Induction of cell cycle arrest at G0/G1 phase in human Hep3B cells at 5 uM measured after 72 hrs by PI/RNase staining based flow cytometry (reference value: 56.73 %); assay type: functional
[8] = test system: HCCLM3; test: Antiproliferative activity against NMN-treated human HCCLM3 cells incubated for 120 hrs by MTT assay; assay type: functional, cell-based
[9] = test system: Hep 3B2; test: Induction of apoptosis in human Hep3B cells assessed as early apoptotic cells at 10 uM measured after 72 hrs by Annexin V-FITC/PI staining based flow cytometry (reference value: 2.13 %); assay type: functional
[10] = biological target: Nicotinamide phosphoribosyltransferase (Homo sapiens, UniProt P43490); test: Inhibition of recombinant NAMPT (unknown origin) by fluorescence based assay
[11] = biological target: Bromodomain testis-specific protein (Homo sapiens, UniProt Q58F21); test: Inhibition of BRDT BD1 (unknown origin) incubated for 120 mins by TR-FRET assay
[12] = test system: Hep 3B2; test: Induction of cell cycle arrest at G2/M phase in human Hep3B cells at 5 uM measured after 72 hrs by PI/RNase staining based flow cytometry (reference value: 11.37 %); assay type: functional
[13] = test system: HCCLM3; test: In vivo inhibition of NAMPT in human HCCLM3 cells xenografted in BALB/c nude mouse assessed as reduction in NAD+ level in tumor tissue administered intraperitoneally for 27 days; assay type: functional, organism-based; details: dose 40-80 mg/kg, route ip, time 27.0 day
[14] = test system: Hep 3B2; test: Antimigratory activity in human Hep3B cells measured upto 24 hrs by transwell assay; assay type: functional, cell-based; details: dose 1-10 µM

Nicotinamide phosphoribosyltransferase, sequence (P43490 whole entry): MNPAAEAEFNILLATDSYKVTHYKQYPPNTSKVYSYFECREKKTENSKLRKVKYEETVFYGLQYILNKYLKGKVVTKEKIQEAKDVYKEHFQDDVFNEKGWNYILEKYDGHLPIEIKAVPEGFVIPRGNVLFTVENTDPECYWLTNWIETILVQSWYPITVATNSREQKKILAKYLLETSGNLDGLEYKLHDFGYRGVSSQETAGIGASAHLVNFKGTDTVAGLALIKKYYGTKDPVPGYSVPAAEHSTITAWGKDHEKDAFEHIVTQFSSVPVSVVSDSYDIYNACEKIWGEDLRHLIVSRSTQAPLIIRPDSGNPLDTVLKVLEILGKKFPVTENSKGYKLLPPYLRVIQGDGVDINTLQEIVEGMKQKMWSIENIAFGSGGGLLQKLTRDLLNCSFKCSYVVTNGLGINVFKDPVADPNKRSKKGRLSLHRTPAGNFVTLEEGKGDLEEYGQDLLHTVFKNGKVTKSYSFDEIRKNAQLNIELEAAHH

SMILES: Cc1sc2c(c1C)C(c1ccc(Cl)cc1)=N[C@@H](CC(=O)NCCCNC(=O)/C=C/c1cccnc1)c1nnc(C)n1-2
- Activity [1]: inactive
- IC50 [2]: 58 nM
- Activity [3]: inactive
- inhibition in vivo at 80 mg/kg [4]: 58.2%
- IC50 [5]: 2370 nM
- Activity [6]: 14.49%
- Activity [7]: 71.08%
- Activity [8]: inactive
- Activity [9]: 18.89%
- IC50 [10]: 35 nM
- IC50 [11]: 354 nM
- Activity [12]: 8.35%
- Activity [13]: Active
- Activity [14]: Dose-Dependent Effect
